Values after ≈ are worked out from the molar mass of the structure shown.
Experiments:
Assay type in all cases: functional
[1] = test system: Pseudomonas aeruginosa; assay: Antibacterial activity against Pseudomonas aeruginosa […] at 100 ug/ml after 24 hr by disk diffusion method; conditions: read-out: DIZ
[2] = test system: Micrococcus luteus; assay: Antibacterial activity against Micrococcus luteus NRRLB 4375 by macrobroth dilution method
[3] = test system: Micrococcus luteus; assay: Antibacterial activity against Micrococcus luteus NRRLB 4375 at 100 ug/ml after 24 hr by disk diffusion method; conditions: NRRLB 4375, 24 h, read-out: DIZ
[4] = test system: Pseudomonas aeruginosa; assay: Antibacterial activity against Pseudomonas aeruginosa […] by macrobroth dilution method
[5] = test system: Bacillus subtilis; assay: Antibacterial activity against Bacillus subtilis RSKK 244 by macrobroth dilution method
[6] = test system: Bacillus subtilis; assay: Antibacterial activity against Bacillus subtilis RSKK 244 at 100 ug/ml after 24 hr by disk diffusion method; conditions: RSKK 244, 24 h, read-out: DIZ
[7] = test system: Priestia megaterium; assay: Antibacterial activity against Bacillus megaterium clinical isolate at 100 ug/ml after 24 hr by disk diffusion method; conditions: read-out: DIZ
[8] = test system: Candida albicans; assay: Antifungal activity against Candida albicans ATCC 90028 at 100 ug/ml by disk diffusion method; conditions: read-out: DIZ

Row | Structure (SMILES) | zone of inhibition at 100 µg/mL [1] [mm] | MIC [2] [mg/L] | zone of inhibition at 100 µg/mL [3] [mm] | MIC [4] [mg/L] | MIC [5] [mg/L] | zone of inhibition at 100 µg/mL [6] [mm] | zone of inhibition at 100 µg/mL [7] [mm] | zone of inhibition at 100 µg/mL [8] [mm]
1 | Cc1ccc(-c2c(C#N)c(N)nc3c2CCCCC3)o1 | 14 | 25 (≈ 93.5 µM) | 9 | 25 (≈ 93.5 µM) | – | – | – | –
2 | Cc1ccc(-c2c(C#N)c(N)nc3c2CCC3)o1 | 17 | 25 (≈ 104 µM) | 15 | 12.5 (≈ 52.2 µM) | 12.5 (≈ 52.2 µM) | 22.5 | – | –
3 | Cc1ccsc1-c1c(C#N)c(N)nc2c1CCCCC2 | 17 | – | – | 12.5 (≈ 44.1 µM) | 37.5 (≈ 132 µM) | 10 | – | –
4 | CC1(C)S[C@@H]2[C@H](NC(=O)[C@H](N)c3ccccc3)C(=O)N2[C@H]1C(=O)O [AMPICILLIN] | – | 8 (≈ 22.9 µM) | 31 | – | – | 15 | 10 | –
5 | Cc1ccc(-c2c(C#N)c(N)nc3c2CCCC3)o1 | – | 37.5 (≈ 148 µM) | 11 | – | – | – | – | –
6 | CN(C)[C@@H]1C(O)=C(C(N)=O)C(=O)[C@@]2(O)C(O)=C3C(=O)c4c(O)cccc4[C@@](C)(O)[C@H]3C[C@@H]12 [TETRACYCLINE] | – | – | 28 | – | – | – | – | –
7 | Cc1ccc(-c2c(C#N)c(N)nc3c2CCCC3)s1 | 20 | 25 (≈ 92.8 µM) | 12 | 12.5 (≈ 46.4 µM) | – | – | – | –
8 | Cc1ccsc1-c1c(C#N)c(N)nc2c1CCCC2 | 9 | 37.5 (≈ 139 µM) | 9 | 25 (≈ 92.8 µM) | – | – | – | –
9 | CC(=O)N1CCN(c2ccc(OCC3COC(Cn4ccnc4)(c4ccc(Cl)cc4Cl)O3)cc2)CC1 (stereo not drawn) [KETOCONAZOLE] | – | – | – | – | – | – | – | 16
10 | CC1(C)S[C@@H]2[C@H](NC(=O)Cc3ccccc3)C(=O)N2[C@H]1C(=O)O [PENICILLIN G] | – | – | 9 | – | – | – | – | –
11 | Cc1ccc(-c2c(C#N)c(N)nc3c2CCCCC3)s1 | 19 | 25 (≈ 88.2 µM) | 20 | 25 (≈ 88.2 µM) | 37.5 (≈ 132 µM) | 10 | – | –
12 | Cc1ccsc1-c1c(C#N)c(N)nc2c1CCC2 | – | 37.5 (≈ 147 µM) | 11 | – | 37.5 (≈ 147 µM) | 13 | – | –
13 | OC(Cn1cncn1)(Cn1cncn1)c1ccc(F)cc1F [FLUCONAZOLE] | – | 8 (≈ 26.1 µM) | – | – | – | – | – | –
14 | Cc1ccc(-c2c(C#N)c(N)nc3c2CCC3)s1 | 15 | 37.5 (≈ 147 µM) | 12 | 25 (≈ 97.9 µM) | 25 (≈ 97.9 µM) | 15 | – | –

Reference: ChEMBL document CHEMBL3046933, “Synthesis and evaluation of a series of aminocyanopyridines as antimicrobial agents” (2011)
